Laboratory results from patent US12336995B2, “Combination therapies” (Mirati Therapeutics, Inc., priority 2018, dated 2025).
Where two headings read alike, the source gives them in different places.

How the values were obtained:
KYSE-410 cells [1] = assay: In vivo tumor model, Compound 478 and Afatinib (Table 4b); settings: for Average Tumor Volumes: KYSE-410, Afatinib 12.5 mg/kg, single or combined
Experimental: (§1) Immunocompromised nude/nude mice were inoculated in the right hind flank with cells or patient derived tumor samples harboring a KRas G12C mutation. […] The first group was administered vehicle only. […] The fourth group was administered the single agent dose of the KRas G12C inhibitor in combination with the single agent dose of the pan ErbB family inhibitor. […] Tumor volumes were measured using a caliper every two-three days and tumor volumes were calculated by the formula: 0.5×(Length×Width)^2.
(§2) Tumor volumes were measured at pre-specified days set forth below.

KYSE-410 cells [2] = settings: KYSE-410-implanted mice; Day 61 (Treatment Day 50); single agent 100 mg/kg p.o. daily; Table 6a
Experimental: as §1, §2

H2122 cells [3] = settings: H2122-implanted mice; Day 46 (Treatment Day 35); single agent 100 mg/kg p.o. daily; Table 6b
Experimental: as §1, §2

LU6405 cells (PDX model) = assay: In vivo PDX model, Compound 478 and Afatinib (Table 4c); settings: for Average Tumor Volumes: LU6405, Afatinib 12.5 mg/kg, single or combined
Experimental: as §1, §2

[4] = system: CR2528 cells (PDX models); assay: In vivo PDX model, Compound 478 and Cetuximab (Table 5b); set-up: species or system nude/nude mice; settings: for Average Tumor Volumes: CR2528, Cetuximab 0.25 mg/kg i.p. every third day, single or combined
Experimental: as §1
(§3) In a related experiment, on Day 1, two sets of 20 nude/nude mice each were inoculated in the right hind limb with 5×10^6 CR6256 cells or CR2528 cells (PDX models). […] Tumor volumes were measured at pre-specified days set forth below.

CR6258 Tumor = assay: In vivo PDX model, Compound 478 and Cetuximab (Table 5a); set-up: species or system nude/nude mice; settings: for Average Tumor Volumes: CR6258, Cetuximab 0.25 mg/kg i.p. every third day, single or combined
Experimental: as §1, §3

H2122 cells [5] = assay: In vivo tumor model, Compound 478 and Afatinib (Table 4a); settings: for Average Tumor Volumes: H2122, Afatinib 12.5 mg/kg, single or combined
Experimental: as §1, §2

[6] = Day 11 post implant (treatment start), p.o. daily: Compound 478 100 mg/kg
[7] = Day 14 post implant, p.o. daily from Day 11: Compound 478 100 mg/kg
[8] = Day 18 post implant, p.o. daily from Day 11: Compound 478 100 mg/kg
[9] = Day 21 post implant, p.o. daily from Day 11: Compound 478 100 mg/kg
[10] = Day 25 post implant, p.o. daily from Day 11: Compound 478 100 mg/kg
[11] = Day 28 post implant, p.o. daily from Day 11: Compound 478 100 mg/kg
[12] = Day 32 post implant, p.o. daily from Day 11: Compound 478 100 mg/kg
[13] = Day 34 post implant, p.o. daily from Day 11: Compound 478 100 mg/kg
[14] = Day 11 post implant (treatment start), Compound 478 100 mg/kg p.o. daily

In the case of `C=C(F)C(=O)N1CCN(c2nc(OC[C@@H]3CCCN3C)nc3c2CCN(c2cccc4cccc(Cl)c24)C3)C[C@@H]1CC#N` [Compound 478], the “Average Tumor Volumes” value (KYSE-410 cells [1]; [6]) is reported as 307.30 mm^3, the “Average Tumor Volumes” value (KYSE-410 cells [1]; [7]) is reported as 274.64 mm^3 and the “Average Tumor Volumes” value (KYSE-410 cells [1]; Day 16 post implant, p.o. daily from Day 11: Compound 478 100 mg/kg) is reported as 311.34 mm^3. For the same compound, the “Average Tumor Volumes” value (KYSE-410 cells [1]; [8]) was 297.62 mm^3, the “Average Tumor Volumes” value (KYSE-410 cells [1]; [9]) was 338.18 mm^3 and the “Average Tumor Volumes” value (KYSE-410 cells [1]; Day 23 post implant, p.o. daily from Day 11: Compound 478 100 mg/kg) was 320.42 mm^3. For the same compound, the “Average Tumor Volumes” value (KYSE-410 cells [1]; [10]) was 358.68 mm^3, the “Average Tumor Volumes” value (KYSE-410 cells [1]; [11]) was 459.20 mm^3 and the “Average Tumor Volumes” value (KYSE-410 cells [1]; Day 30 post implant, p.o. daily from Day 11: Compound 478 100 mg/kg) was 441.60 mm^3. For the same compound, the “Average Tumor Volumes” value (KYSE-410 cells [1]; [12]) was 480.62 mm^3, the “Average Tumor Volumes” value (KYSE-410 cells [1]; Day 37 post implant, p.o. daily from Day 11: Compound 478 100 mg/kg) was 525.86 mm^3 and the tumor growth inhibition (KYSE-410 cells [1]; KYSE-410 tumor bearing mice, Day 37 (Treatment Day 27), single agent 100 mg/kg p.o. daily) was 64%. For the same compound, the tumor growth inhibition (KYSE-410 cells [2]) was 71%, the tumor regression (H2122 cells [3]) was 3% and the “Average Tumor Volumes” value (LU6405 cells (PDX model); [6]) was 256.06 mm^3. The “Average Tumor Volumes” value (LU6405 cells (PDX model); [7]) was 308.98 mm^3, the “Average Tumor Volumes” value (LU6405 cells (PDX model); [8]) was 324.46 mm^3 and the “Average Tumor Volumes” value (LU6405 cells (PDX model); [9]) was 329.09 mm^3. For the same compound, the “Average Tumor Volumes” value (LU6405 cells (PDX model); [10]) was 310.21 mm^3, the “Average Tumor Volumes” value (LU6405 cells (PDX model); [11]) was 290.88 mm^3 and the “Average Tumor Volumes” value (LU6405 cells (PDX model); [12]) was 257.34 mm^3. For the same compound, the “Average Tumor Volumes” value (LU6405 cells (PDX model); [13]) was 249.19 mm^3, the tumor growth inhibition (LU6405 cells (PDX model); LU6405-implanted mice, Day 34 (Treatment Day 24), single agent 100 mg/kg p.o. daily) was 96% and the single-agent anti-tumor activity ([4]; CR2528-implanted mice, Day 34 (Treatment Day 24), 100 mg/kg p.o. daily) was “no single-agent anti-tumor activity”. The “Average Tumor Volumes” value [4, 14] was 265.11 mm^3, the “Average Tumor Volumes” value ([4]; Day 14 post implant, from Day 11: Compound 478 100 mg/kg p.o. daily) was 350.48 mm^3 and the “Average Tumor Volumes” value ([4]; Day 17 post implant, from Day 11: Compound 478 100 mg/kg p.o. daily) was 434.64 mm^3. The “Average Tumor Volumes” value ([4]; Day 20 post implant, from Day 11: Compound 478 100 mg/kg p.o. daily) was 656.73 mm^3, the “Average Tumor Volumes” value ([4]; Day 24 post implant, from Day 11: Compound 478 100 mg/kg p.o. daily) was 950.91 mm^3 and the “Average Tumor Volumes” value ([4]; Day 27 post implant, from Day 11: Compound 478 100 mg/kg p.o. daily) was 1252.80 mm^3. The “Average Tumor Volumes” value ([4]; Day 31 post implant, from Day 11: Compound 478 100 mg/kg p.o. daily) was 1713.13 mm^3, the “Average Tumor Volumes” value ([4]; Day 34 post implant, from Day 11: Compound 478 100 mg/kg p.o. daily) was 2757.63 mm^3 and the tumor regression (CR6258 Tumor; CR6258-implanted mice, Day 37 (Treatment Day 27), Compound 478 100 mg/kg p.o. daily alone or with cetuximab 0.25 mg/kg i.p. every three days) was 71%. The “Average Tumor Volumes” value (CR6258 Tumor; [14]) was 190.54 mm^3, the “Average Tumor Volumes” value (CR6258 Tumor; Day 18 post implant, from Day 11: Compound 478 100 mg/kg p.o. daily) was 256.91 mm^3 and the “Average Tumor Volumes” value (CR6258 Tumor; Day 25 post implant, from Day 11: Compound 478 100 mg/kg p.o. daily) was 201.00 mm^3. For the same compound, the “Average Tumor Volumes” value (CR6258 Tumor; Day 28 post implant, from Day 11: Compound 478 100 mg/kg p.o. daily) was 128.77 mm^3, the “Average Tumor Volumes” value (CR6258 Tumor; Day 32 post implant, from Day 11: Compound 478 100 mg/kg p.o. daily) was 77.44 mm^3 and the “Average Tumor Volumes” value (CR6258 Tumor; Day 35 post implant, from Day 11: Compound 478 100 mg/kg p.o. daily) was 56.15 mm^3. The “Average Tumor Volumes” value (CR6258 Tumor; Day 39 post implant, from Day 11: Compound 478 100 mg/kg p.o. daily) was 44.24 mm^3, the “Average Tumor Volumes” value (CR6258 Tumor; Day 42 post implant, from Day 11: Compound 478 100 mg/kg p.o. daily) was 41.80 mm^3 and the “Average Tumor Volumes” value (CR6258 Tumor; Day 46 post implant, from Day 11: Compound 478 100 mg/kg p.o. daily) was 29.92 mm^3. For the same compound, the “Average Tumor Volumes” value (CR6258 Tumor; Day 49 post implant, from Day 11: Compound 478 100 mg/kg p.o. daily) was 19.79 mm^3, the “Average Tumor Volumes” value (H2122 cells [5]; [6]) was 325.05 mm^3 and the “Average Tumor Volumes” value (H2122 cells [5]; Day 13 post implant, p.o. daily from Day 11: Compound 478 100 mg/kg) was 339.80 mm^3. For the same compound, the “Average Tumor Volumes” value (H2122 cells [5]; Day 15 post implant, p.o. daily from Day 11: Compound 478 100 mg/kg) was 337.58 mm^3, the “Average Tumor Volumes” value (H2122 cells [5]; [8]) was 381.78 mm^3 and the “Average Tumor Volumes” value (H2122 cells [5]; Day 20 post implant, p.o. daily from Day 11: Compound 478 100 mg/kg) was 462.40 mm^3. The “Average Tumor Volumes” value (H2122 cells [5]; Day 22 post implant, p.o. daily from Day 11: Compound 478 100 mg/kg) was 479.48 mm^3, the “Average Tumor Volumes” value (H2122 cells [5]; [10]) was 492.76 mm^3 and the “Average Tumor Volumes” value (H2122 cells [5]; Day 27 post implant, p.o. daily from Day 11: Compound 478 100 mg/kg) was 541.06 mm^3. For the same compound, the “Average Tumor Volumes” value (H2122 cells [5]; Day 29 post implant, p.o. daily from Day 11: Compound 478 100 mg/kg) was 537.14 mm^3, the “Average Tumor Volumes” value (H2122 cells [5]; [12]) was 547.06 mm^3 and the “Average Tumor Volumes” value (H2122 cells [5]; [13]) was 546.96 mm^3. It also gave a tumor growth inhibition (H2122 cells [5]; H2122 tumor bearing mice, Day 22 (Treatment Day 10), single agent, Compound 478 100 mg/kg, afatinib 12.5 mg/kg p.o. daily) of 85%.
